Data from ChEMBL document CHEMBL1129227, “Synthesis and in vitro cytotoxic activity of novel hexahydro-2H-pyrido[1,2-b]isoquinolines against human brain tumor cell lines” (1997).

Columns and labels:
Format in all cases: functional
Conditions in all cases: read-out: LC50 (the source's name)
A 172 = assay: Compound was evaluated for the in vitro cytotoxicity against A-172 human glioblastoma cell line
D283 Med = assay: Compound was evaluated for the in vitro cytotoxicity against […] Med human brain medulloblastoma tumor cell line
T98G = assay: Compound was evaluated for the in vitro cytotoxicity against T98G human glioblastoma cell line

C=C(C)[C@H]1CCN2Cc3ccccc3C[C@H]2[C@H]1O
CC50 (A 172): 158 µM | CC50 (D283 Med): 143 µM

CC(C)[C@H]1CCN2Cc3ccccc3C[C@H]2[C@H]1/N=C/c1ccc(Cl)cc1
CC50 (T98G): 45 µM | CC50 (A 172): 97 µM | CC50 (D283 Med): 50 µM

C=C(C)[C@H]1CCN2Cc3ccccc3C[C@H]2[C@@H]1NCC(F)(F)F
CC50 (T98G): 172 µM | CC50 (A 172): 157 µM | CC50 (D283 Med): 40 µM

C=C(C)[C@H]1CCN2Cc3ccccc3C[C@H]2[C@H]1NCc1ccc(Cl)cc1
CC50 (T98G): 42 µM | CC50 (A 172): 55 µM | CC50 (D283 Med): 29 µM

CC(C)[C@H]1CCN2Cc3ccccc3C[C@H]2[C@H]1/N=C/c1ccccc1
CC50 (T98G): 222 µM | CC50 (A 172): 226 µM

C=C(C)[C@H]1CCN2Cc3ccccc3C[C@H]2[C@@H]1NCc1ccccc1
CC50 (T98G): 43 µM | CC50 (A 172): 58 µM | CC50 (D283 Med): 53 µM
